PMC6151383 (Molecules : A Journal of Synthetic Chemistry and Natural …, 2017)
Read-outs that look alike come from different tables or passages of the source.

Columns and labels:
[1] = system: Klebsiella pneumoniae D 11750/08; experiment: Antibacterial microdilution broth MIC, K. pneumoniae; details: 48 h incubation
[2] = system: Escherichia coli CCM 4517; experiment: Antibacterial microdilution broth MIC, E. coli; format: cell-based; details: Escherichia coli
Candida krusei E28 = experiment: Antifungal microdilution broth MIC, C. krusei; format: cell-based; details: Pichia kudriavzevii
[3] = system: Staphylococcus epidermidis H 6966/08; experiment: Antibacterial microdilution broth MIC, S. epidermidis; format: cell-based; details: Staphylococcus epidermidis
[4] = system: Mycobacterium kansasii 235/80; experiment: In vitro antimycobacterial MIC, M. kansasii 235/80; format: cell-based
[5] = system: ESBL-positive Klebsiella pneumoniae J 14368/08
[6] = system: Aspergillus fumigatus 231; experiment: Antifungal microdilution broth MIC, A. fumigatus; format: cell-based
[7] = system: Trichophyton interdigitale 445; experiment: Antifungal microdilution broth MIC, T. interdigitale; format: cell-based
Candida glabrata 20/I = experiment: Antifungal microdilution broth MIC, C. glabrata; format: cell-based; details: Nakaseomyces glabratus
[8] = system: Mycobacterium tuberculosis 331/88 (H37Rv); experiment: In vitro antimycobacterial MIC, M. tuberculosis; format: cell-based
M. kansasii 6509/96 = experiment: In vitro antimycobacterial MIC, M. kansasii clinical isolate; format: cell-based; details: Mycobacterium kansasii
[9] = system: Staphylococcus aureus CCM 4516/08; experiment: Antibacterial microdilution broth MIC, S. aureus; format: cell-based; details: Staphylococcus aureus
[10] = system: Pseudomonas aeruginosa CCM 1961; experiment: Antibacterial microdilution broth MIC, P. aeruginosa; format: cell-based; details: Pseudomonas aeruginosa
Candida tropicalis 156 = experiment: Antifungal microdilution broth MIC, C. tropicalis; format: cell-based
[11] = system: Enterococcus faecalis J 14365/08; experiment: Antibacterial microdilution broth MIC, E. faecalis; format: cell-based; details: Enterococcus faecalis
[12] = system: Candida albicans ATCC 44859; experiment: Antifungal microdilution broth MIC, C. albicans; format: cell-based
[13] = system: Mycobacterium avium 330/88; experiment: In vitro antimycobacterial MIC, M. avium; format: cell-based
[14] = system: Lichtheimia corymbifera 272; experiment: Antifungal microdilution broth MIC, L. corymbifera; format: cell-based
Trichosporon asahii 1188 = experiment: Antifungal microdilution broth MIC, T. asahii; format: cell-based
Candida sp. = experiment: Selectivity index for Candida sp. (IC50 HepG2/MIC); format: cell-based; details: all Candida species
M. tuberculosis and NTM = experiment: Antimycobacterial activity, panel; format: cell-based; details: Mycobacterium tuberculosis
[15] = system: Klebsiella pneumoniae D 11750/08
[16] = system: Gram-positive and Gram-negative bacteria; details: both Gram-positive and Gram-negative bacteria; cited from earlier work
[17] = CCM4517, 24 h, read-out: MIC EC 24 h
[18] = CCM4517, 48 h, read-out: MIC EC 48 h
[19] = E28, 48 h incubation, read-out: MIC CK 48 h
[20] = H6966/08, 48 h incubation, read-out: MIC SE 48 h
[21] = 235/80, 168 h, 7 d incubation, read-out: MIC M. kansasii 235/80 7 d
[22] = 235/80, 336 h, 14 d incubation, read-out: MIC M. kansasii 235/80 14 d
[23] = 235/80, 504 h, 21 d incubation, read-out: MIC M. kansasii 235/80 21 d
[24] = Aspergillus fumigatus, 231, 24 h, read-out: MIC AF 24 h
[25] = Aspergillus fumigatus, 231, 48 h, read-out: MIC AF 48 h
[26] = 48 h incubation, read-out: MIC CG 48 h
[27] = 336 h, 14 d incubation, read-out: MIC Mtb. 331/88 14 d
[28] = 504 h, 21 d incubation, read-out: MIC Mtb. 331/88 21 d
[29] = 6509/96, 168 h, 7 d incubation, read-out: MIC M. kansasii 6509/96 7 d
[30] = 6509/96, 336 h, 14 d incubation, read-out: MIC M. kansasii 6509/96 14 d
[31] = 6509/96, 504 h, 21 d incubation, read-out: MIC M. kansasii 6509/96 21 d
[32] = CCM4516, 48 h incubation, read-out: MIC SA 48 h
[33] = CCM1961, 48 h incubation, read-out: MIC PA 48 h
[34] = Candida tropicalis, 156, 48 h incubation, read-out: MIC CT 48 h
[35] = J14365/08, 24 h, read-out: MIC EF 24 h
[36] = J14365/08, 48 h, read-out: MIC EF 48 h
[37] = ATCC44859, 48 h incubation, read-out: MIC CA 48 h
[38] = 330/88, 336 h, 14 d incubation, read-out: MIC M. avium 330/88 14 d
[39] = 330/88, 504 h, 21 d incubation, read-out: MIC M. avium 330/88 21 d
[40] = Lichtheimia corymbifera, 272, 24 h, read-out: MIC LC 24 h
[41] = Lichtheimia corymbifera, 272, 48 h, read-out: MIC LC 48 h
[42] = Trichosporon asahii, 1188, 48 h incubation, read-out: MIC TA 48 h
[43] = Trichophyton interdigitale, 445, 72 h, read-out: MIC TI 72 h
[44] = Trichophyton interdigitale, 445, 120 h, read-out: MIC TI 120 h
[45] = Trichophyton interdigitale, 445, read-out: MIC for T. interdigitale

O=S(=O)(Nc1ncccn1)c1ccc(N=Cc2cc(I)cc(I)c2O)cc1 [Compound 2p, 4-[(2-Hydroxy-3,5-diiodobenzylidene)amino]-N-(pyrimidin-2-yl)benzenesulfonamide]
3.9 µM: MIC (Candida glabrata 20/I; [26]) | MIC [12, 37] | MIC (Trichosporon asahii 1188; [42])
500 µM: MIC [10, 33] | MIC [13, 39]
125 µM: MIC KP 48 h [1] | MIC [2, 17] | MIC [2, 18] | MIC [4, 21] | MIC KP-E 48 h ([5]; 48 h incubation) | MIC (M. kansasii 6509/96; [30]) | MIC [11, 35] | MIC [11, 36]
250 µM: MIC [4, 22] | MIC [4, 23] | MIC [8, 27] | MIC [8, 28] | MIC (M. kansasii 6509/96; [31]) | MIC [13, 38]
15.6 µM: MIC ([7]; Trichophyton interdigitale, 445, 72 h incubation, read-out: MIC TI 72 h) | MIC ([7]; Trichophyton interdigitale, 445, 120 h incubation, read-out: MIC TI 120 h)
62.5 µM: MIC [6, 24] | MIC [6, 25] | MIC (M. kansasii 6509/96; [29]) | MIC [14, 40] | MIC [14, 41]
7.81 µM: MIC (Candida krusei E28; [19]) | MIC [3, 20] | MIC ([3]; H6966/08, incubation time not given, read-out: MIC for S. epidermidis) | MIC [9, 32] | MIC (Candida tropicalis 156; [34])

CC(C)(C)c1ccc(O)c(C=Nc2ccc(S(=O)(=O)Nc3ncccn3)cc2)c1 [Compound 2j, 4-{[5-(Tert-butyl)-2-hydroxybenzylidene]amino}-N-(pyrimidin-2-yl)benzenesulfonamide]
> 125 µM: MIC [2, 17] | MIC [2, 18] | MIC (Candida krusei E28; E28, 24 h, read-out: MIC CK 24 h) | MIC (Candida krusei E28; E28, 48 h, read-out: MIC CK 48 h) | MIC ([3]; H6966/08, 24 h, read-out: MIC SE 24 h) | MIC ([3]; H6966/08, 48 h, read-out: MIC SE 48 h) | MIC [6, 24] | MIC [6, 25] | MIC (Candida glabrata 20/I; 24 h, read-out: MIC CG 24 h) | MIC (Candida glabrata 20/I; 48 h, read-out: MIC CG 48 h) | MIC ([9]; CCM4516, 24 h, read-out: MIC SA 24 h) | MIC ([9]; CCM4516, 48 h, read-out: MIC SA 48 h) | MIC ([10]; CCM1961, 24 h, read-out: MIC PA 24 h) | MIC ([10]; CCM1961, 48 h, read-out: MIC PA 48 h) | MIC (Candida tropicalis 156; Candida tropicalis, 156, 24 h, read-out: MIC CT 24 h) | MIC (Candida tropicalis 156; Candida tropicalis, 156, 48 h, read-out: MIC CT 48 h) | MIC [11, 35] | MIC [11, 36] | MIC ([12]; ATCC44859, 24 h, read-out: MIC CA 24 h) | MIC ([12]; ATCC44859, 48 h, read-out: MIC CA 48 h) | MIC [14, 40] | MIC [14, 41] | MIC (Trichosporon asahii 1188; Trichosporon asahii, 1188, 24 h, read-out: MIC TA 24 h) | MIC (Trichosporon asahii 1188; Trichosporon asahii, 1188, 48 h, read-out: MIC TA 48 h)
16 µM: MIC [4, 21] | MIC (M. kansasii 6509/96; [29]) | MIC (M. kansasii 6509/96; [30])
32 µM: MIC [4, 22] | MIC [8, 27] | MIC (M. kansasii 6509/96; [31])
62.5 µM: MIC [4, 23] | MIC [7, 43] | MIC [7, 44] | MIC [7, 45] | MIC [8, 28]
>125 µM: MIC KP 48 h [1] | MIC KP-E 48 h ([5]; 48 h incubation)
125 µM: MIC [13, 38] | MIC [13, 39]
inactive: SI for Candida sp. (Candida sp.)

O=S(=O)(Nc1ncccn1)c1ccc(N=Cc2ccccc2O)cc1 [Compound 2a, 4-[(2-Hydroxybenzylidene)amino]-N-(pyrimidin-2-yl)benzenesulfonamide]
32 µM: MIC [4, 23] | MIC [8, 28] | MIC (M. kansasii 6509/96; [31])
16 µM: MIC [4, 22] | MIC [8, 27] | MIC (M. kansasii 6509/96; [30])
500 µM: MIC [9, 32] | MIC [10, 33]
inactive: SI for Candida sp. (Candida sp.)
> 500 µM: MIC ([2]; CCM4517, 48 h incubation, read-out: MIC EC 48 h) | MIC (Candida krusei E28; [19]) | MIC ([6]; Aspergillus fumigatus, 231, 48 h incubation, read-out: MIC AF 48 h) | MIC (Candida glabrata 20/I; [26]) | MIC (Candida tropicalis 156; [34]) | MIC [12, 37] | MIC ([14]; Lichtheimia corymbifera, 272, 48 h incubation, read-out: MIC LC 48 h) | MIC (Trichosporon asahii 1188; [42])
≤ 32 µM: MIC (M. tuberculosis and NTM; M. tuberculosis and both M. kansasii strains only, read-out: MIC, M. tuberculosis and both M. kansasii strains)
100 to 250 µg/mL: minimum inhibitory concentrations (MICs) [16]
62.5 µM: MIC [3, 20] | MIC ([11]; J14365/08, 48 h incubation, read-out: MIC EF 48 h)
>500 µM: MIC KP 24 h ([15]; 24 h) | MIC KP 48 h ([15]; 48 h) | MIC KP-E 24 h ([5]; 24 h) | MIC KP-E 48 h ([5]; 48 h)
250 µM: MIC [13, 39]
8 to 250 µM: MIC (M. tuberculosis and NTM; range over all four mycobacterial strains and incubation times, read-out: MIC, M. tuberculosis and NTM)
125 µM: MIC [7, 43] | MIC [7, 44] | MIC [7, 45] | MIC [13, 38]
8 µM: MIC [4, 21] | MIC (M. kansasii 6509/96; [29])
